According to patent publication US20020035124A1, “Insecticidal and miticidal compositions” (priority 1996, published 2002):

How the values were obtained:
[1] = test system: Kanzawa spider mite (Tetranychus kanzawai kishida) which are resistant to chlorfenapyr; experiment: Miticidal effect against female imagines of chlorfenapyr-resistant Kanzawa spider mite (leaf disk spray test); settings: for LC50: single test compound, female imago, chlorfenapyr-resistant strain, mortality two days after spray treatment, probit analysis
Protocol: In this experiment, the miticidal effect against female imagines (adults) of Kanzawa spider mite (Tetranychus kanzawai kishida) which are resistant to chlorfenapyr is evaluated.
Round leaf disks (2 cm diameter) are cut out of a first leaf of kidney bean by a leaf punch and 4 sheets of the disks are placed on wet sanitary cotton in a plastic cup (8 cm diameter). On each leaf disk, 4 female imagines of Kanzawa spider mite (Tetranychus kanzawai kishida) which had acquired a strong resistance to chlorfenapyr are inoculated.
Each plastic cup is sprayed with 3.5 ml of a test solution with a rotary spray tower (Mizuho Scientific Co., Ltd.) and stored in a constant temperature chamber held at 25±1° C. (32 individuals are tested per concentration, 4-5 concentrations are evaluated per formulation and 2 performances are repeated). […] [formula] […]
The tested mite was a female image of the chlorfenapyr-resistant strain of Kanzawa spider mite which was obtained by a long artificial selection procedure against chlorfenapyr in a laboratory on a colony of Kanzawa spider mite which had been collected in the field.

[2] = test system: susceptible strain of spider mite; experiment: LC50 against a susceptible strain of spider mite; type: in vivo

Structure (SMILES)	LC50 [1] [ppm]	resistance to chlorfenapyr of the resistant strain versus susceptible strain ([1]; LC50 resistant strain relative to susceptible strain) [fold]	LC50 [2]
CCSCc1ccccc1OC(=O)NC [Ethiofencarb, 2-(Ethylthiomethyl)phenyl methylcarbamate]	2100		
CCC(C)c1ccccc1OC(=O)NC (centres unmarked) [BPMC, 2-sec-Butylphenyl-N-methylcarbamate]	3200		
CCOCn1c(-c2ccc(Cl)cc2)c(C#N)c(Br)c1C(F)(F)F [Chlorfenapyr, 4-Bromo-2-(4-chlorophenyl)-1-(ethoxymethyl)-5-(trifluoromethyl)pyrrole-3-carbonitrile]	1500	~300	about 5 ppm
